Source: US12486267B2, “Imidazo[1,2-A]pyridine and [1,2,4]triazolo[1,5-A]pyridine derivatives as TLR9 inhibitors for the treatment of fibrosis” (BRISTOL-MYERS SQUIBB COMPANY, priority 2020, dated 2025)
pIC50: −log10 of the molar value.

What was measured:
Assay type in all cases: cell-based
human TLR9 = biological target: T1, human TLR9 (Homo sapiens, UniProt Q9NR96); experiment: TLR9 inhibition reporter assay (HEK-Blue cells, SEAP reporter); details: HEK-Blue cells overexpressing human TLR9; stimulated with ODN2006 5 nM; 22 hour incubation; SEAP readout
T1 sequence (Q9NR96 26-1032): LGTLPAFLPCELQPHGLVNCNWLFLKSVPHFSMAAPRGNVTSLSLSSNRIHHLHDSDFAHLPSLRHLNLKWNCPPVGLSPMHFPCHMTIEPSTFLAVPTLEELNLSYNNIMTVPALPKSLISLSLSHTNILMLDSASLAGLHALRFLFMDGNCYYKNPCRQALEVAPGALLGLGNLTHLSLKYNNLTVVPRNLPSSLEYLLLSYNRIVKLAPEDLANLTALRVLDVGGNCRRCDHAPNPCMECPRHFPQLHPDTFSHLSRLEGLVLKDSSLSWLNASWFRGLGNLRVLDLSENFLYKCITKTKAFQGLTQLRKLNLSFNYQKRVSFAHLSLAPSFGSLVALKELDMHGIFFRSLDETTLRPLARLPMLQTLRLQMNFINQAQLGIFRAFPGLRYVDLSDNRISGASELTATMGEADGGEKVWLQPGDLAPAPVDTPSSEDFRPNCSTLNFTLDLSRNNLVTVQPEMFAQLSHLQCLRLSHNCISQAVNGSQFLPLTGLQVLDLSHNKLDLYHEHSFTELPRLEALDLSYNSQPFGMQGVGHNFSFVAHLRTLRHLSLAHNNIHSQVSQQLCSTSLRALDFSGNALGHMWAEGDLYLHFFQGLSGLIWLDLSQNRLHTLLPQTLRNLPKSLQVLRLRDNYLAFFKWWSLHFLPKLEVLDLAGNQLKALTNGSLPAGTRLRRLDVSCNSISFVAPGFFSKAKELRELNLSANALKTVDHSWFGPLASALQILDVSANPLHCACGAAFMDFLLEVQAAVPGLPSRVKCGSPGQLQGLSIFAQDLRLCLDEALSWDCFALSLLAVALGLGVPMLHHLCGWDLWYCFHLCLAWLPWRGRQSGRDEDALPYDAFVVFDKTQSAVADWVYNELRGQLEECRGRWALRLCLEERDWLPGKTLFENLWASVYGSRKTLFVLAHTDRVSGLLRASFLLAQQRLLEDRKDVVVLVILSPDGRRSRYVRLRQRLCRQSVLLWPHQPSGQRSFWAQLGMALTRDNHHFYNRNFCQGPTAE
Summary of the method: (§1)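 HEK-Blue cells with NF-κB/AP-1-driven SEAP pre-treated 30 min with compound (0.05 nM–50 μM), then stimulated with gardiquimod 7.5 μM (TLR7), R848 15.9 μM (TLR8) or ODN2006 5 nM (TLR9). SEAP detected after 22 h at 37 °C; percent inhibition relative to agonist-plus-DMSO and known-inhibitor wells.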

human TLR7 = biological target: T2, human TLR7 (Homo sapiens, UniProt Q9NYK1); experiment: TLR7 inhibition reporter assay (HEK-Blue cells, SEAP reporter); details: HEK-Blue cells overexpressing human TLR7; stimulated with gardiquimod 7.5 μM; 22 hour incubation; SEAP readout
T2 sequence (Q9NYK1 27-1049): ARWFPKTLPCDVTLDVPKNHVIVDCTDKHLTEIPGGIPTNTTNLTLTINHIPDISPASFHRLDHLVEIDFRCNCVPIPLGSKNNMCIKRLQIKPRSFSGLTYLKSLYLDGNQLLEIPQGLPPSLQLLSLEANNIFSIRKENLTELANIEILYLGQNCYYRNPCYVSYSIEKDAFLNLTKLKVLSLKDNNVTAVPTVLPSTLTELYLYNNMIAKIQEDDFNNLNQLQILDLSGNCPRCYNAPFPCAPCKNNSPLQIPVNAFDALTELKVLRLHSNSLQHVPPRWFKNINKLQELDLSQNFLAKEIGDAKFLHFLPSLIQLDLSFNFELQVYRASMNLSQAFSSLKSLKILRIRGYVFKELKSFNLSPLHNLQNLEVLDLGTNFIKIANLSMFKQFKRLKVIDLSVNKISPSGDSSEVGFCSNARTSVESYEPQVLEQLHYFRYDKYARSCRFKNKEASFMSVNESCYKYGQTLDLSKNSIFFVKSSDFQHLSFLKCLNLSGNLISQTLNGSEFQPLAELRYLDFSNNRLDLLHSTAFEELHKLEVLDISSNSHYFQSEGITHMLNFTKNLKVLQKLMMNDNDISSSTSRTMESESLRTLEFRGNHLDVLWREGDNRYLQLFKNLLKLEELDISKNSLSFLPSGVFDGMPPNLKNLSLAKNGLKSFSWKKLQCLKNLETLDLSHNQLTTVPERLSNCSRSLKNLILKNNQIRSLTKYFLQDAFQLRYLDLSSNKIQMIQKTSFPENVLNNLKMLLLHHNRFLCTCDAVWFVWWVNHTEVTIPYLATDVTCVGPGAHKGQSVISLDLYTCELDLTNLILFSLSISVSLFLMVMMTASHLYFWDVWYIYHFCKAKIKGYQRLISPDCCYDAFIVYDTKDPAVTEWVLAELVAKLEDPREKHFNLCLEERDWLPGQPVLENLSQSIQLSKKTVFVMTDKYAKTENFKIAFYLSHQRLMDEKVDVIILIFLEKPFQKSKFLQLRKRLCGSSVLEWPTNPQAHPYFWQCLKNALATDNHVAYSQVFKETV
Summary of the method: as §1

human TLR8 = biological target: T3, human TLR8 (Homo sapiens, UniProt Q9NR97); experiment: TLR8 inhibition reporter assay (HEK-Blue cells, SEAP reporter); details: HEK-Blue cells overexpressing human TLR8; stimulated with R848 15.9 μM; 22 hour incubation; SEAP readout
T3 sequence (Q9NR97 27-1041): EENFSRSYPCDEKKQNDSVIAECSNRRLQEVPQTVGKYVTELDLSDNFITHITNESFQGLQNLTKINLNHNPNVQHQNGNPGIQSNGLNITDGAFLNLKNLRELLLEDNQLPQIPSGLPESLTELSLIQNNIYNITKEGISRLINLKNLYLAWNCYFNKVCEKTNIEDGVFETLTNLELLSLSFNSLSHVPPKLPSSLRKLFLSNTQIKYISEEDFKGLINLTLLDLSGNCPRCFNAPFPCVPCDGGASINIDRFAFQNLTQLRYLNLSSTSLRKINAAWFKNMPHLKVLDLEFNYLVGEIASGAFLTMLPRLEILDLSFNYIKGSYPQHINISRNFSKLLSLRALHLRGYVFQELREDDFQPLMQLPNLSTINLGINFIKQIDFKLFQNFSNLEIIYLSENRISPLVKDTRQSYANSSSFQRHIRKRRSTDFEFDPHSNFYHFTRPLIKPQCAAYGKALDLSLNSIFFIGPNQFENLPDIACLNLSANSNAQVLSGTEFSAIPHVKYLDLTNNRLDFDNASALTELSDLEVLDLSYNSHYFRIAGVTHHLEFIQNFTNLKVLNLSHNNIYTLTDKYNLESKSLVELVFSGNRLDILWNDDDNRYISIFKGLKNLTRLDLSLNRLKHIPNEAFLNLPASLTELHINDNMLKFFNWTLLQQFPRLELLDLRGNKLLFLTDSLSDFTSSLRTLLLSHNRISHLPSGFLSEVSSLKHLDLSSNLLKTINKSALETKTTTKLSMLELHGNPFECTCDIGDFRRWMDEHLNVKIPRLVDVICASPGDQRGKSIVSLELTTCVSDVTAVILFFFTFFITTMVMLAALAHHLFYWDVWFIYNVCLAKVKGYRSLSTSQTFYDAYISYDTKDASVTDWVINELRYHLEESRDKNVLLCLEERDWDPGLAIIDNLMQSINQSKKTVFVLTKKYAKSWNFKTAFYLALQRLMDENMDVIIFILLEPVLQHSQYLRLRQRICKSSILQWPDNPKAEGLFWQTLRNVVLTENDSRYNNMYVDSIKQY
Summary of the method: as §1

| Structure (SMILES) | pIC50 (human TLR9) | pIC50 (human TLR7) | pIC50 (human TLR8) |
| --- | --- | --- | --- |
| CC(C)N1CCC(N2CCC(c3cc(F)c4nc(-c5ccc(S(C)(=O)=O)cc5)cn4c3)CC2)CC1 [Example 67, 8-fluoro-6-(1′-isopropyl-[1,4′-bipiperidin]-4-yl)-2-(4-(methylsulfonyl)phenyl) imidazo[1,2-a]pyridine] | 7.37 | 4.72 | < 4.30 |
| COc1ccc(-c2cn3c(n2)CCC(C2CCN(C4CCN(C(=O)C5CC5)CC4)CC2)C3)cc1OC (racemic) [Example 42, cyclopropyl(4-(2-(3,4-dimethoxyphenyl)-5,6,7,8-tetrahydroimidazo[1,2-a]pyridin-6-yl)-[1,4′-bipiperidin]-1′-yl)methanone] | 7.10 | 4.72 | < 4.30 |
| COc1ccc(-c2cn3c(n2)CCC(C2CCN(C4CC5(C4)CN(C4CCC4)C5)CC2)C3)cc1OC (single isomer, unassigned) [Example 49, 6-(1-(2-cyclobutyl-2-azaspiro[3.3]heptan-6-yl)piperidin-4-yl)-2-(3,4-dimethoxyphenyl)-5,6,7,8-tetrahydroimidazo[1,2-a]pyridine] | 7.66 | 5.74 | < 4.30 |
| COc1ccc(-c2cn3c(n2)CCC(C2CCN(C4CC5(C4)CN(CC(C)C)C5)CC2)C3)cc1OC (single isomer, unassigned) [Example 53, 2-(3,4-dimethoxyphenyl)-6-(1-(2-isobutyl-2-azaspiro[3.3]heptan-6-yl)piperidin-4-yl)-5,6,7,8-tetrahydroimidazo[1,2-a]pyridine] | 7.66 | 5.59 | < 4.30 |
| Cc1cc(C2CC3CCC(C2)N3C2CCN(C(C)C)CC2)cn2nc(-c3ccc(S(C)(=O)=O)cc3)nc12 (stereo not drawn) [Example 160, 6-(8-(1-isopropylpiperidin-4-yl)-8-azabicyclo[3.2.1]octan-3-yl)-8-methyl-2-(4-(methylsulfonyl)phenyl)-[1,2,4]triazolo[1,5-a]pyridine] | 7.36 | 5.16 | < 4.30 |
| COc1ccc(-c2cn3cc(C4CCN(C5CC6CCC(C5)N6C(C)C)CC4)cc(C)c3n2)cc1OC (single isomer, unassigned) [Example 22, 2-(3,4-dimethoxyphenyl)-6-(1-(8-isopropyl-8-azabicyclo[3.2.1]octan-3-yl)piperidin-4-yl)-8-methylimidazo[1,2-a]pyridine] | 7.52 | 5.92 | < 4.30 |
| COc1ccc(-c2cn3cc(-c4ccc(N5CCN(C6COC6)CC5)cc4)cc(C)c3n2)cc1OC [Example 64, 2-(3,4-dimethoxyphenyl)-8-methyl-6-(4-(4-(oxetan-3-yl)piperazin-1-yl)phenyl) imidazo[1,2-a]pyridine] | 5.62 | < 4.60 | < 4.60 |
| Cc1cc(C2CCN(C3CCN(C(C)C)CC3)CC2)cc2nc(-c3ccc(S(C)(=O)=O)cc3)cn12 [Example 66, 7-(1′-isopropyl-[1,4′-bipiperidin]-4-yl)-5-methyl-2-(4-(methylsulfonyl)phenyl) imidazo[1,2-a]pyridine] | 7.21 | 4.84 | < 4.30 |
| COc1ccc(-c2cn3c(n2)CCC(C2CCN(C4CC5(C4)CN(C(C)C)C5)CC2)C3)cc1OC (racemic) [Example 45, 2-(3,4-dimethoxyphenyl)-6-(1-(2-isopropyl-2-azaspiro[3.3]heptan-6-yl)piperidin-4-yl)-5,6,7,8-tetrahydroimidazo[1,2-a]pyridine] | 7.05 | 5.68 | < 4.30 |
| CC(C)CN1C2CCC1CC(N1CCC(c3cc(F)c4nc(-c5ccc(S(C)(=O)=O)cc5)cn4c3)CC1)C2 (single isomer, unassigned) [Example 113, 8-fluoro-6-(1-(8-isobutyl-8-azabicyclo[3.2.1]octan-3-yl)piperidin-4-yl)-2-(4-(methylsulfonyl)phenyl)imidazo[1,2-a]pyridine] | 7.51 | 6.22 | < 4.30 |
| CC(C)N1CCCC(N2CCC(c3cc(F)c4nc(-c5ccc(S(C)(=O)=O)cc5)cn4c3)CC2)CC1 (single isomer, unassigned) [Example 72, 8-fluoro-6-(1-(1-isopropylazepan-4-yl)piperidin-4-yl)-2-(4-(methylsulfonyl)phenyl)imidazo[1,2-a]pyridine] | 8.59 | 5.52 | < 4.30 |
| COc1ccc(-c2cn3c(n2)CCC(C2CCN(C4CCN(C(=O)C(C)C)CC4)CC2)C3)cc1OC (single isomer, unassigned) [Example 40, 1-(4-(2-(3,4-dimethoxyphenyl)-5,6,7,8-tetrahydroimidazo[1,2-a]pyridin-6-yl)-[1,4′-bipiperidin]-1′-yl)-2-methylpropan-1-one] | 6.73 | 4.42 | < 4.30 |
| Cc1cc(-c2ccc(N3CCN(CC4CC4)CC3)cc2)cn2cc(-c3ccc(S(C)(=O)=O)cc3)nc12 [Example 100, 6-(4-(4-(cyclopropylmethyl)piperazin-1-yl)phenyl)-8-methyl-2-(4-(methylsulfonyl)phenyl) imidazo[1,2-a]pyridine] | 6.48 | 4.87 | 4.83 |
